Experimental data as given in patent publication US8263615B2, “Bis-heterocyclic imidazolyl compounds” (Novartis AG, priority 2005, dated 2012).

What was measured:
plasma corticosterone = assay: in vivo suppression of plasma corticosterone levels in ACTH-stimulated rats; set-up: species or system Wistar rats; settings: rat plasma, 4 mg/kg p.o., 2 h after dosing vs 1 h before dosing
Procedure: (§1) The aldosterone- and corticosterone-suppressing activity of herein described compounds may be assessed with the following in vivo protocol.
(§2) Adult male Wistar rats weighing between 250 and 350 grams are kept under the usual 12 hour light and 12 hour dark conditions at a temperature of 23° C.±2° C. On the first day of the experiment, the animals receive a subcutaneous injection of a depot ACTH product in a dose of 1.0 mg/kg weight (SYNACTEN-Depot, Novartis, Basel, CH) 16 hours prior to the administration of a test compound. […] An alternative method to stimulate aldosterone secretion consists in subjecting rats to a low salt diet for 48 hours and applying the diuretic furosemide at 10 mg/kg by subcutaneous or intraperitoneal administration 16 hours, respectively 2 hours prior to the start of the experiment. On the second day of the experiment, the animals are divided into test groups of 5 animals and subjected to a first bleed 1 hour prior to the administration of test compound. Subsequently, and 16 hours after the injection of the ACTH product, the animals receive either vehicle or test compound dissolved in vehicle in a variable dose range from 0.02 to 20 mg/kg by oral gavage. The animals are bled two more times from the vena subclavia under isoflurane anesthesia 2 and 6 hours after dosing. The blood is collected in heparin-treated tubes. The plasma samples are obtained by centrifugation and stored at −20° C. An alternative method to bleed animals time-dependently consists in using animals that are chronically carotid catheterized which allows the periodical sampling of up to 0.2 ml of blood using an AccuSampler (DiLab Europe, Lund, Sweden). The blood sampling with the AccuSampler may occur 1 hour prior to the administration of a test compound and 2, 4, 6, 8, 12, 16 and 24 hours thereafter. The blood samples are anti-coagulated with heparin and centrifuged. The aldosterone and corticosterone concentrations of the plasma samples can be determined with a radioimmunoassay as described above for the in vitro test systems.
(§3) The selective suppression of plasma steroid levels as for instance aldosterone in comparison to corticosterone may serve as a measure for in vivo bioavailability and pharmacodynamic enzyme inhibitory activity of the herein described compounds. The evaluation of the data may occur relative to the application of vehicle or quantitatively by determination of the area under the curve (AUC).

plasma aldosterone = assay: in vivo suppression of plasma aldosterone levels in ACTH-stimulated rats; set-up: species or system Wistar rats; settings: rat plasma, 4 mg/kg p.o., 2 h after dosing vs 1 h before dosing
Procedure: as §1, §2, §3

O=[N+]([O-])c1ccccc1C1CCCn2cncc21 (stereo not shown) [Example 13, 8-(2-Nitrophenyl)-5,6,7,8-tetrahydroimidazo[1,5-a]pyridine]
Corticosterone levels (% change at 2 h) (plasma corticosterone): 0%
Aldosterone levels (% change at 2 h) (plasma aldosterone): −62%

CC(=O)c1ccc(C2CCn3cncc32)cc1 (stereo not shown) [Example 3, 1-[4-(6,7-Dihydro-5H-pyrrolo[1,2-c]imidazol-7-yl)phenyl]ethanone]
Corticosterone levels (% change at 2 h) (plasma corticosterone): −13%
Aldosterone levels (% change at 2 h) (plasma aldosterone): −53%

Fc1ccc(C2CCn3cncc32)cc1F (stereo not shown) [Example 2, 7-(3,4-Difluorophenyl)-6,7-dihydro-5H-pyrrolo[1,2-c]imidazole]
Corticosterone levels (% change at 2 h) (plasma corticosterone): −32%
Aldosterone levels (% change at 2 h) (plasma aldosterone): −49%

CSc1ccc(C2CCCn3cncc32)cc1 (stereo not shown) [Example 12, 8-(4-Methylsulphanylphenyl)-5,6,7,8-tetrahydroimidazo[1,5-a]pyridine]
Corticosterone levels (% change at 2 h) (plasma corticosterone): 2%
Aldosterone levels (% change at 2 h) (plasma aldosterone): −61%

CC1(C)CCn2cncc2C1c1ccc(C#N)cc1 (stereo not shown) [Example 16, 4-(7,7-Dimethyl-5,6,7,8-tetrahydroimidazo[1,5-a]pyridin-8-yl)benzonitrile]
Corticosterone levels (% change at 2 h) (plasma corticosterone): −3%
Aldosterone levels (% change at 2 h) (plasma aldosterone): −21%
